Common to all, as to type: cell-based
For test [1], the target named is T1, NFκB (p50 or p65 subunits) (Homo sapiens, UniProt P19838+Q04206).
T1 construct: endogenous in cells
Nature of the test: TransAM NFκB p65 / p50 Chemi transcription factor assay (oligonucleotide binding). The following applies: for TNFα-induced NFκB activity: TNFα-treated cells; for basal NFκB activity: control cells. An excerpt:
The left set of bars represents cells treated with carrier control, the middle set represents cells treated with SNX2, and the right set represents cells treated with a known inhibitor of NFκB binding (TPCK).
We also tested if these compounds could act as the inhibitors of NFκB, by measuring cellular levels of p50 or p65 subunits binding oligonucleotides containing NFκB consensus binding site, using ACTIVE MOTIF TransAM™ NFκB p65 Chemi and NFκB p50 Chemi Transcription Factor Assay Kits.

The subject of the next test is HT1080 p21-9 cells. Nature of the test: FACS analysis of DNA content (cell cycle distribution) in HT1080 p21-9 cells. The following applies: 18 hrs; for increase in the G1 fraction relative to cells treated with IPTG alone: 20 μM compound added simultaneously with 50 μM IPTG; for decrease in the G2 fraction of IPTG-treated cells: 20 μM compound with 50 μM IPTG; for increase in the G1 fraction: 20 μM compound, in the absence of IPTG. The procedure:
We have analyzed the effect of SNX2-class compounds on cell cycle distribution of p21-arrested HT1080 p21-9 cells. Upon p21 induction, these cells are known to arrest both in G1 and in G2 (Chang et al., Oncogene 19, 2165-2170), which is illustrated in FIG. 9 by a reduction in the S-phase but not in the G1 or G2 fractions of cells treated with 50 μM IPTG for 18 hrs, relative to IPTG-untreated cells (as determined by FACS analysis of DNA content in DAPI-stained cells). 20 μM concentrations of SNX2 or SNX14 produce a small increase in the G1 fraction in the absence of IPTG (4% increase with SNX2 and 5% increase with SNX14) (FIG. 9). However, when SNX2 and SNX14 were added simultaneously with IPTG, they produced a much greater increase in the G1 fraction relative to cells treated with IPTG alone (19% increase with SNX2 and 22% increase with SNX14) (FIG. 9).
A general note: A flow cytometer gives signals particle by particle.

In test [2] the test system is normal human WI-38 fibroblasts. The test is described as follows: Doxorubicin-induced senescent phenotype (SA-β-gal) in WI-38 fibroblasts. Conditions: senescence induced by 200 nM doxorubicin. As for the experimental part: We have correlated the ability of SNX2-class compounds to inhibit the induction of CDKI-responsive genes with their effect on the senescent phenotype, induced in normal human WI-38 fibroblasts by treatment with 200 nM doxorubicin.

Test [3] relates to HT1080 p21-9 cells co-cultured with C8 mouse fibroblast line. Nature of the test: Paracrine antiapoptotic activity of p21-expressing HT1080 p21-9 cells, survival of C8 cells in low-serum media. The following applies: p21 induction for three days in presence of compound; C8 survival after 3 days in 0.5% serum, luciferase assay. An excerpt:
We have also tested if SNX2-class compounds can inhibit paracrine tumor-promoting activities of CDKI-expressing cells. In the assay shown in FIG. 12, HT1080 p21-9 cells were either untreated or treated with p21-inducing IPTG, alone or in the presence of three SNX2-class compounds (SNX2, SNX14 and SNX38). After three days, cells were trypsinized, washed to remove residual compounds, and 3×10^3 cell aliquots of each sample were mixed (in 6 replicates) with 10^4 cell aliquots of C8 mouse fibroblast line, which is highly susceptible to apoptosis in low-serum media. (To detect C8 cells in co-culture, we had transduced them with a vector expressing firefly luciferase.) The next day after plating the mixtures in 96-well plates (in 10% serum and in the absence of IPTG or compounds), cells were exposed to low-serum (0.5%) media, and the relative number of surviving C8 cells was measured after 3 days by the luciferase assay.

The subject of the next test is HT1080 p27-2 cells. Nature of the test: FACS cell cycle analysis in HT1080 p27-2 cells with IPTG-inducible p27. The following applies: 20 μM compound, 24-hour treatment. The procedure: IPTG induces dose-dependent increase in the G1 fraction with a corresponding decrease in S and G2/M. The doses of IPTG used in this experiment induce G1 arrest at levels that are lower than the maximal levels that are produced by 50-100 μM IPTG, where >80% of cells are in G1.

The test system of test [4] is CDKI-responsive promoter of cellular NK4 gene. The test is described as follows: NK4-luciferase reporter in HT1080 p21-9 cells, prevention and reversal of p21-induced transcription. The following applies: for induction of NK4-luciferase by p21 (reversal): compound added after two days of IPTG treatment; for induction of NK4-luciferase by p21: compound added simultaneously with IPTG. The procedure:
The compounds show pronounced dose-dependent inhibition of transcription by p21, but they have only a marginal effect on the promoter function when p21 is not induced. […] In this experiment, HT1080 p21-9 cells that express firefly luciferase from a CDKI-responsive promoter of cellular NK4 gene were cultured with IPTG for two days, which is sufficient for near-maximal induction of NK4.
On the technique in general: Reporter assays use an easily measured gene product as a stand-in for the process of interest.

Entries after “also recorded” stand apart in the source; their conditions may differ.

Consider five compounds from US20090281129A1, “CDKI PATHWAY INHIBITORS AND USES THEREOF” (Senex Biotechnology, Inc., priority 2006, published 2009).

T1 sequence (P19838 1-433 limits assumed): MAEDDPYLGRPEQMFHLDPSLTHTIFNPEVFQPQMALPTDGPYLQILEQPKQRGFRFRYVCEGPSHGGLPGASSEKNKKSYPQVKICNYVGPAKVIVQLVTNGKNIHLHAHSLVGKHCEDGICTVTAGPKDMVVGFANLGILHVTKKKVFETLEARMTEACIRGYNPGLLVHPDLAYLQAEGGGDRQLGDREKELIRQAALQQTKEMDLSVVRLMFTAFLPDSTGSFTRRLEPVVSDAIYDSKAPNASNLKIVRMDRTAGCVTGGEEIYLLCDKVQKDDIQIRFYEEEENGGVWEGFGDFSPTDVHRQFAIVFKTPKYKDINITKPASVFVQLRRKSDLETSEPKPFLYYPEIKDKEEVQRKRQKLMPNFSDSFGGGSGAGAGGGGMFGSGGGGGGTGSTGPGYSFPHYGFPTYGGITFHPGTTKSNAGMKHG
T1 sequence (Q04206 whole entry): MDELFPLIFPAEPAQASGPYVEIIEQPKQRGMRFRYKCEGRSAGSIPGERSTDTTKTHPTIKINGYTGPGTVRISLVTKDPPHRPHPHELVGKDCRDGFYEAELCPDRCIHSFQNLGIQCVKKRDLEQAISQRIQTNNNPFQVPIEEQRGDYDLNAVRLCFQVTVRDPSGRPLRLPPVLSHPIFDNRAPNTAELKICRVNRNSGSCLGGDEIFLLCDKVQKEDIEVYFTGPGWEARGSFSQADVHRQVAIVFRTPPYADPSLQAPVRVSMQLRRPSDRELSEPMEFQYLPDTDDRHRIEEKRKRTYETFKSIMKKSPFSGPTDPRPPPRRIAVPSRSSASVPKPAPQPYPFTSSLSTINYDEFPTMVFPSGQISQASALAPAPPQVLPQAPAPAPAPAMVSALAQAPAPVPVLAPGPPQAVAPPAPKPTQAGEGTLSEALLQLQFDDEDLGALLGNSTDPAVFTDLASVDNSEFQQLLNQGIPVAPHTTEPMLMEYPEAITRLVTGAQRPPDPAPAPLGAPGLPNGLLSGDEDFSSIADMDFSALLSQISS

For `CCCNc1ncnc2ccc(Br)cc12` [SNX2], in test [1], the “TNFα-induced NFκB activity” value was “no significant effect” and the “basal NFκB activity” value is listed as “no significant effect”. In addition, the “binding of NFκB proteins p50 or p65 to double-stranded DNA oligonucleotide comprising NFκB binding site” value in test [1] (control or TNFα-treated cells) is listed as “does not inhibit”. Besides, in the test on HT1080 p21-9 cells, the “increase in the G1 fraction relative to cells treated with IPTG alone” value is recorded as 19%, the “decrease in the G2 fraction of IPTG-treated cells” value is reported as 6% and the “increase in the G1 fraction” value is 4%. In test [2], the “expression of senescence marker SA-β-gal” value is “block this phenotype” and the “morphological changes associated with cell senescence” value is recorded as “diminish”. The “p21-induced increase of C8 cell survival (paracrine antiapoptotic activity)” value (“p21-induced increase of C8 cell survival” below) in test [3] was “significantly diminished”.

Take `CC(C)Nc1ncnc2ccc(I)cc12` [SNX14]: in the test with HT1080 p21-9 cells, the “increase in the G1 fraction relative to cells treated with IPTG alone” value is recorded as 22%, the “decrease in the G2 fraction of IPTG-treated cells” value is 7% and the “increase in the G1 fraction” value is 5%. Also, the “effect on sub-maximal G1 arrest induced by IPTG (p27)” value in the test with HT1080 p27-2 cells was “strongly augmented”. Besides, in test [2], the “expression of senescence marker SA-β-gal” value is on record as “block this phenotype” and the “morphological changes associated with cell senescence” value is listed as “diminish”. Further, in test [3], the “p21-induced increase of C8 cell survival” value was “significantly diminished; also recorded: strongest effect”.

`COCCCNc1ncnc2ccc(I)cc12` [SNX38]: in test [4], the “induction of NK4-luciferase by p21 (reversal)” value is recorded as “reverses; also recorded: strongly decreased” and the “induction of NK4-luciferase by p21” value was “prevents; also recorded: strongly decreased”. In addition, the “p21-induced increase of C8 cell survival” value in test [3] is reported as “significantly diminished”.

As to `Cc1c(Cl)cccc1NC(=O)CCN1CCN(Cc2ccccc2)CC1` [SNX63], in test [4], the “induction of NK4-luciferase by p21 (reversal)” value is given as “not two days later” and the “induction of NK4-luciferase by p21” value was “inhibited transcription”.

For `Cc1ccc(S(=O)(=O)N[C@@H](Cc2ccccc2)C(=O)CCl)cc1` [TPCK, reference compound], in test [1], the “TNFα-induced NFκB activity” value is “completely blocks” and the “basal NFκB activity” value is reported as “completely blocks”.
